Test results from patent US5254576A, “Diphenyl-heterocyclic-oxazole as platelet aggregation inhibitors” (Bristol-Myers Squibb Company, priority 1992, dated 1993).
≈ marks a conversion by molar mass, not a printed value.

What was measured:
[1] = system: ADP-induced aggregation of human blood platelets; experiment: cells; conditions: Platelet, read-out: IC50 (human PRP vs ADP)
human PRP vs ADP = conditions: U.S. Pat. No. 4,460,598; Lautenschlager, et al., Drugs of the Future, 11, 26 (1986); cited from earlier work
platelet aggregation = conditions: prior art (U.S. Pat. No. 4,460,598; EPO 0434034); cited from earlier work

Compound O=C(O)COc1cccc(-c2ocnc2-c2nc(-c3ccccc3)c(-c3ccccc3)o2)c1 [Compound 5] has an IC50 [1] of 0.012 µg/mL (≈ 0.0274 µM).

Work on COC(=O)COc1cccc(-c2ocnc2-c2nc(-c3ccccc3)c(-c3ccccc3)o2)c1 [Compound 6] yielded an IC50 [1] of 0.012 µg/mL (≈ 0.0265 µM).

Compound COCOc1cccc(-c2ocnc2-c2nc(-c3ccccc3)c(-c3ccccc3)o2)c1 [Compound 10] has an IC50 [1] of 28 µg/mL (≈ 66 µM).

c1ccc(-c2nc(-c3ncoc3-c3cccc(OCc4nnn[nH]4)c3)oc2-c2ccccc2)cc1 [Compound 12, 5-[3-[4-(4,5-Diphenyl-2-oxazolyl)-5-oxazolyl]-phenoxy]methyl-1H-tetrazole] gave an IC50 [1] of 0.06 µg/mL (≈ 0.13 µM).

With COC(=O)COc1cccc(-c2ocnc2-c2nnc(-c3ccccc3)n2-c2ccccc2)c1 [Compound 16, Methyl [3-[4-(4,5-diphenyl-4H-1,2,4-triazol-3-yl)-5-oxazolyl]phenoxy]acetate] the IC50 [1] was > 32 µg/mL.

With O=C(O)COc1cccc(-c2ocnc2-c2nnc(-c3ccccc3)n2-c2ccccc2)c1 [Compound 17] the IC50 [1] was > 32 µg/mL.

Work on COC(=O)COc1cccc(-c2ocnc2-c2nc(-c3ccsc3)c(-c3ccsc3)o2)c1 [Compound 19] yielded an IC50 [1] of 0.19 µg/mL (≈ 0.409 µM).

In the case of O=C(O)COc1cccc(-c2ocnc2-c2nc(-c3ccsc3)c(-c3ccsc3)o2)c1 [Compound 20], the IC50 [1] is reported as 0.21 µg/mL (≈ 0.466 µM).

COC(=O)COc1cccc(-c2ocnc2-c2nc(-c3ccccc3)c(-c3ccccc3)[nH]2)c1 [Compound 22] showed an IC50 [1] of 0.13 µg/mL (≈ 0.288 µM).

O=C(O)COc1cccc(-c2ocnc2-c2nc(-c3ccccc3)c(-c3ccccc3)[nH]2)c1 [Compound 23] showed an IC50 [1] of 0.012 µg/mL (≈ 0.0274 µM).

COC(=O)COc1cccc(-c2ocnc2-c2nc(-c3ccccc3)c(-c3ccccc3)s2)c1 [Compound 31] gave an IC50 [1] of 0.26 µg/mL (≈ 0.555 µM).

In the case of O=C(O)COc1cccc(-c2ocnc2-c2nc(-c3ccccc3)c(-c3ccccc3)s2)c1 [Compound 32], the IC50 [1] is reported as 0.096 µg/mL (≈ 0.211 µM).

In the case of O=C(O)CCCCCCCOc1nc(-c2ccccc2)c(-c2ccccc2)n1-c1ccccc1 [Octimibate], the “IC50 (human PRP vs ADP)” value (human PRP vs ADP) is given as 1 µg/mL (≈ 2.2 µM) and the “inhibition of platelet aggregation, in words” value (platelet aggregation) is given as “broad spectrum inhibitor of platelet aggregation”.
